From patent US20160354427A1, “METHODS FOR INDUCING EPITHELIAL CANCER CELL SENESCENCE” (Institute for Cancer Research d/b/a The Research Institute …, priority 2011, published 2016)

How the values were obtained:
Wnt5a mRNA in PEO1 cells = experiment: Wnt5a mRNA expression by qRT-PCR after Aza-C treatment; format: cell-based, human; conditions: 5 μmol/L Aza-C for 4 days, vs control
Description: (§1) FIGS. 2A-2C show promoter DNA CpG island hypermethylation contributes to Wnt5a downregulation in human EOC cells. […] Locations of exon 1 (open rectangle), CpG sites (vertical lines) and coding exons (filled rectangle), and the transcription start site (curved arrow) are indicated. Flat arrows indicate the positions of primers used for PCR amplification, and the size of PCR product is also indicated. […] Mean of 3 independent experiments with SD.
(§2) RT-PCR, qRT-PCR and immunoblotting. RNA from cultured primary HOSE or human EOC cells was isolated using Trizol (Invitrogen) according to manufacture's instruction. For qRT-PCR, Trizol®—(Molecular Research Center, Inc., Cincinnati, Ohio) isolated RNA was further purified using a RNeasy® mini kit (Qiagen GmbH, Germany). The Wnt5a primers used for qRT-PCR were purchased from Applied Biosystems. Housekeeping β-2-microglobulin or β-actin mRNA expression was used to normalize the Wnt5a mRNA expression. Soluble β-catenin was extracted using a buffer that consisting of 10 mM pH 7.5 Tris-HCl, 0.05% NP-40, 10 mM NaCl, 3 mM MgCl2, 1 mM EDTA and proteinase inhibitors (Roche). The following antibodies were used for immunoblotting: goat anti-Wnt5a (R&D systems), mouse anti-GAPDH (Millipore/Chemicon), mouse anti-β-catenin (BD Bioscience), anti-p53, mouse anti-Rb and mouse anti-β-actin (Sigma Chemical Co.), and rabbit anti-pRBpS780 (Cell Signaling).

[1] = test system: Wnt5a protein in PEO1 cells; experiment: Wnt5a protein expression by immunoblotting after Aza-C treatment; format: cell-based, human; conditions: 5 μmol/L Aza-C for 4 days, vs control
Description: as §1, §2

In the case of `Nc1ncn([C@@H]2O[C@H](CO)[C@@H](O)[C@H]2O)c(=O)n1` [Aza-C, 5-Aza-cytadine], the “levels of Wnt5a mRNA” value (Wnt5a mRNA in PEO1 cells) is reported as “significant increase” and the “levels of Wnt5a protein” value [1] is reported as “significant increase”.
